Test results from US5958886A, “Carnitine-containing peptides and a method for using the same” (Sigma-Tau Pharmaceuticals, Inc., priority 1998, dated 1999).
Non-standard residues stand in square brackets, D forms with d. Residues, ends and D or L forms follow the SMILES beside them. Sar = CNCC(=O)O

How the values were obtained:
[1] = molecular target: T1, peptide carrier from human intestine (Homo sapiens, UniProt P46059); assay: Charge transfer in Xenopus oocytes expressing the peptide carrier from human intestine (electrophysiological approach); type: cell-based; settings: Xenopus oocytes expressing human intestinal peptide carrier; exposure to 10 mM
T1 construct: expressed in transfected cells; host or cells: Xenopus oocytes injected with peptide transporter mRNA
T1 sequence (P46059 1-708): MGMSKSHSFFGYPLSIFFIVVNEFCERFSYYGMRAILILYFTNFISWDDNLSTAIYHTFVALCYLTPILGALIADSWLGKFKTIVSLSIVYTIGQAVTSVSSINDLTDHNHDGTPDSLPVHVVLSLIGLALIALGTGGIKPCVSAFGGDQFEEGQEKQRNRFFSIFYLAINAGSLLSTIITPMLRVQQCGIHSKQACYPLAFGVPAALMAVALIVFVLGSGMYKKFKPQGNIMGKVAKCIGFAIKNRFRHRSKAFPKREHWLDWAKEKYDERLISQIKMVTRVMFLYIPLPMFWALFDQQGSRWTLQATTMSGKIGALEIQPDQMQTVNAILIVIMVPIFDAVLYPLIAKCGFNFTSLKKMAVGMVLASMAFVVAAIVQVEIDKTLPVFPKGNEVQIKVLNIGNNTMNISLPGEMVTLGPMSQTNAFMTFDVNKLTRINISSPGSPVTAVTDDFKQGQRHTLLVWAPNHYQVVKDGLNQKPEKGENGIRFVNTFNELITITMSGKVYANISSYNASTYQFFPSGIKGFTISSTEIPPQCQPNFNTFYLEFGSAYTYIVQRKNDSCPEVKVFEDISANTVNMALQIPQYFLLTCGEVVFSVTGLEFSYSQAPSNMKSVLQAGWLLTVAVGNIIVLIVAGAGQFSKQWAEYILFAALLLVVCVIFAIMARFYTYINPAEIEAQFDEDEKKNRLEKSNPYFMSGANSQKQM
Description: In this experiment, Xenopus (frog) oocytes which were made to express the peptide carrier from human intestine by injection of its peptide transporter mRNA were used to study the transport of CAA via the carrier. The peptide carrier uses the energy from a proton gradient and peptide transport via the carrier leads to a transfer of positive charge into the oocytes. This charge transfer can be monitored using the electrophysiological approach. If CAA is transported via the peptide carrier, exposure of the oocytes to CAA is expected to result in the transfer of positive charge.

[2] = molecular target: T2, peptide carrier (Homo sapiens, UniProt P46059); assay: Inhibition of glycyl-sarcosine transport via the peptide carrier in Caco-2 cells; type: cell-based
T2 construct: endogenous in cells; host or cells: Caco-2 cells
T2 sequence (P46059 1-708): T1 sequence (P46059 1-708)
Description: Carnityl-alanyl-alanine (CAA) is a peptide derivative of carnitine. In this experiment, the ability of CAA to compete with glycyl-sarcosine for transport via the peptide carrier was studied in Caco-2 cells. These cells are a good model system for the human intestine and they express the peptide carrier as does the human intestine. Glycyl-sarcosine is a standard substrate for the peptide carrier. If CAA is taken up by the peptide carrier it is expected to compete with glycyl-sarcosine for transport via the carrier and thus inhibit the transport.

Compound: CN(CC(=O)O)C(=O)CN [glycyl-sarcosine, Glycyl-sarcosine, reference compound] (H-Gly-[Sar]-OH)
- charge transfer into oocytes (in words) [1]: charge transfer found

Compound: Carnityl-alanyl-alanine [CAA]
- charge transfer into oocytes (in words) [1]: induced charge transfer
- inhibition of the transport of glycylsarcosine ([2]; Caco-2 cells, at 10 mM): 35%
- inhibition of the transport of glycylsarcosine ([2]; Caco-2 cells, at 20 mM): 80%
- affinity for the intestinal peptide carrier ([2]; concluded from the Caco-2 and oocyte experiments): millimolar range

Compound: C[N+](C)(C)CC(O)CC(=O)[O-] (stereo not drawn) [Free carnitine, Carnitine]
- inhibition of glycyl-sarcosine transport (in words) ([2]; Caco-2 cells, under similar conditions): does not inhibit
